Test system: human maximum recommended daily dose, FDA database
Test: DSSTox (FDAMDD) FDA Maximum (Recommended) Daily Dose Database
Conditions: stronger effect = lower value
Summary of the method: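 MRDD values come from clinical trials with daily oral dosing, usually for 3–12 months, for the average adult, in mg/day converted to mg/kg-bw/day assuming 60 kg. Antineoplastic mg/m2 doses are divided by 37. Activity score maps log10(1/MRDD mmol) onto 1–100.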

[1] = TherapeuticCategory: skeletal muscle relaxant
[2] = TherapeuticCategory: analgesic, anti inflammatory
[3] = TherapeuticCategory: cardiotonic
[4] = TherapeuticCategory: antibacterial

With `CCOC(=O)C(C)(C)Oc1ccc(Cl)cc1` as the molecule, how does the maximum recommended daily dose (mmol/kg-bw/day) (TherapeuticCategory: antihyperlipoproteinemic) read?
The maximum recommended daily dose (mmol/kg-bw/day) was 0.137.

How did the maximum recommended daily dose (mmol/kg-bw/day) (TherapeuticCategory: regulator) turn out when `CC(C)[C@@H](C)/C=C/[C@@H](C)[C@H]1CC[C@H]2/C(=C/C=C3\C[C@@H](O)CC[C@@H]3C)CCC[C@]12C` was run?
Its maximum recommended daily dose (mmol/kg-bw/day) is 0.000105.

Which maximum recommended daily dose (mmol/kg-bw/day) (TherapeuticCategory: antiosteoporotic) does the source give for `NCCCC(O)(P(=O)(O)O)P(=O)(O)O` here?
Its maximum recommended daily dose (mmol/kg-bw/day) is 0.00268.

`C/C=C(/CC[C@@H](C)[C@H]1CC[C@H]2C3=CC[C@H]4[C@H](C)[C@@H](O)CC[C@]4(C)[C@H]3CC[C@]12C)C(C)C` was tested. Which maximum recommended daily dose (mmol/kg-bw/day) (TherapeuticCategory: anticholinesteremic) did it give?
The maximum recommended daily dose (mmol/kg-bw/day) was 0.234.

How did the maximum recommended daily dose (mmol/kg-bw/day) (TherapeuticCategory: antidepressant) turn out when `CN(C)CCCC1(c2ccc(F)cc2)OCc2cc(C#N)ccc21` (configuration not stated) was run?
Its maximum recommended daily dose (mmol/kg-bw/day) is 0.00308.

How did the maximum recommended daily dose (mmol/kg-bw/day) (TherapeuticCategory: calcium regulator) turn out when `C=C1CC[C@H](O)C/C1=C/C=C1\CCC[C@]2(C)[C@@H]([C@H](C)CCCC(C)(C)O)CC[C@@H]12` was run?
Its maximum recommended daily dose (mmol/kg-bw/day) is 8.31e-06.

Which maximum recommended daily dose (mmol/kg-bw/day) [1] does the source give for `Cc1ccc(C(=O)C(C)CN2CCCCC2)cc1` (configuration not stated) here?
Its maximum recommended daily dose (mmol/kg-bw/day) is 0.0204.

How did the maximum recommended daily dose (mmol/kg-bw/day) [2] turn out when `CC(C(=O)O)c1ccc2oc(-c3ccc(Cl)cc3)nc2c1` (configuration not stated) was run?
Its maximum recommended daily dose (mmol/kg-bw/day) is 0.0331.

With `O[C@@H]([C@H](O)[C@@H](O)CBr)[C@@H](O)CBr` as the molecule, how does the maximum recommended daily dose (mmol/kg-bw/day) (TherapeuticCategory: antineoplastic) read?
Its maximum recommended daily dose (mmol/kg-bw/day) is 0.0135.

How did the maximum recommended daily dose (mmol/kg-bw/day) (TherapeuticCategory: antihypertensive) turn out when `CC1=NS(=O)(=O)c2cc(Cl)ccc2N1` was run?
Its maximum recommended daily dose (mmol/kg-bw/day) is 0.0347.

With `CC(C)(O)C(C)(O)c1ccc(Cl)cc1` (configuration not stated) as the molecule, how does the maximum recommended daily dose (mmol/kg-bw/day) (TherapeuticCategory: anxiolytic, anticonvulsant) read?
Its maximum recommended daily dose (mmol/kg-bw/day) is 0.0932.

Which maximum recommended daily dose (mmol/kg-bw/day) (TherapeuticCategory: expectorant) does the source give for `COc1ccccc1OCC(O)CO` (configuration not stated) here?
The maximum recommended daily dose (mmol/kg-bw/day) was 0.101.

For `CC(C)NCC(O)c1ccc(O)c(O)c1` (configuration not stated), which maximum recommended daily dose (mmol/kg-bw/day) (TherapeuticCategory: bronchodilator) is on record?
The maximum recommended daily dose (mmol/kg-bw/day) was 0.000791.

With `OC[C@H]1O[C@@H](O[C@H]2[C@H](O)[C@@H](O)[C@H](O)O[C@@H]2CO)[C@H](O)[C@@H](O)[C@H]1O` as the molecule, how does the maximum recommended daily dose (mmol/kg-bw/day) (TherapeuticCategory: none) read?
The maximum recommended daily dose (mmol/kg-bw/day) was 0.292.

For `COC(=O)C1=C(C)NC(C)=C(C(=O)OCCN(C)Cc2ccccc2)C1c1cccc([N+](=O)[O-])c1` (configuration not stated), which maximum recommended daily dose (mmol/kg-bw/day) (TherapeuticCategory: antianginal, antihypertensive) is on record?
The maximum recommended daily dose (mmol/kg-bw/day) was 0.00417.

How did the maximum recommended daily dose (mmol/kg-bw/day) [2] turn out when `O=C(c1ccccc1)c1ccc2n1CCC2C(=O)O` (configuration not stated) was run?
Its maximum recommended daily dose (mmol/kg-bw/day) is 0.00979.

With `CN1CCCN=C1COC(=O)C(O)(c1ccccc1)C1CCCCC1` (configuration not stated) as the molecule, how does the maximum recommended daily dose (mmol/kg-bw/day) (TherapeuticCategory: anticholinergic) read?
Its maximum recommended daily dose (mmol/kg-bw/day) is 0.00145.

`C[C@@H]1O[C@@H](O[C@@H]2C=C3CC[C@@H]4[C@H](CC[C@]5(C)[C@@H](c6ccc(=O)oc6)CC[C@]45O)[C@@]3(C)CC2)[C@H](O)[C@H](O)[C@H]1O` was tested. Which maximum recommended daily dose (mmol/kg-bw/day) [3] did it give?
Its maximum recommended daily dose (mmol/kg-bw/day) is 7.86e-05.

`CN1CCC(=C2c3ccccc3CCc3cccnc32)CC1` was tested. Which maximum recommended daily dose (mmol/kg-bw/day) (TherapeuticCategory: antihistaminic) did it give?
The maximum recommended daily dose (mmol/kg-bw/day) was 0.000115.

For `NCC1(CC(=O)O)CCCCC1`, which maximum recommended daily dose (mmol/kg-bw/day) (TherapeuticCategory: anticonvulsant) is on record?
Its maximum recommended daily dose (mmol/kg-bw/day) is 0.117.

With `OC[C@H]1O[C@](O)(CO)[C@@H](O)[C@@H]1O` as the molecule, how does the maximum recommended daily dose (mmol/kg-bw/day) (TherapeuticCategory: fluid and nutrient replenisher, ferric form as hematinic) read?
The maximum recommended daily dose (mmol/kg-bw/day) was 2.31.

How did the maximum recommended daily dose (mmol/kg-bw/day) (TherapeuticCategory: antiprotozoal) turn out when `N=C(N)c1ccc(OCCCCCOc2ccc(C(=N)N)cc2)cc1` was run?
The maximum recommended daily dose (mmol/kg-bw/day) was 0.0118.

With `COC1[C@@H](O[C@@H]2O[C@H](C)[C@@H](O[C@H]3C[C@@](C)(O)[C@H](OC(=O)CC(C)C)[C@H](C)O3)[C@H](N(C)C)[C@H]2O)[C@@H](CC=O)C[C@@H](C)[C@@H](O)/C=C/C=C/C[C@@H](C)OC(=O)C[C@H]1OC(C)=O` (some centres not stated) as the molecule, how does the maximum recommended daily dose (mmol/kg-bw/day) [4] read?
The maximum recommended daily dose (mmol/kg-bw/day) was 0.0604.

How did the maximum recommended daily dose (mmol/kg-bw/day) [3] turn out when `CC(=O)O[C@H]1C[C@H](O[C@H]2[C@@H](O)C[C@H](O[C@H]3[C@@H](O)C[C@H](OC4CC[C@@]5(C)C(CC[C@@H]6[C@@H]5CC[C@]5(C)[C@@H](C7=CC(=O)OC7)[C@@H](O)C[C@]65O)C4)O[C@@H]3C)O[C@@H]2C)O[C@H](C)[C@H]1O[C@@H]1O[C@H](CO)[C@@H](O)[C@H](O)[C@H]1O` (some centres not stated) was run?
The maximum recommended daily dose (mmol/kg-bw/day) was 3.38e-05.

How did the maximum recommended daily dose (mmol/kg-bw/day) (TherapeuticCategory: antiperistaltic, antidiarrheal) turn out when `N#CC(CCN1CCC(C(=O)O)(c2ccccc2)CC1)(c1ccccc1)c1ccccc1` was run?
Its maximum recommended daily dose (mmol/kg-bw/day) is 0.000313.

`COc1ccccc1OCC(O)COC(N)=O` (configuration not stated) was tested. Which maximum recommended daily dose (mmol/kg-bw/day) [1] did it give?
The maximum recommended daily dose (mmol/kg-bw/day) was 0.415.

Which maximum recommended daily dose (mmol/kg-bw/day) (TherapeuticCategory: none) does the source give for `Cc1c(C(=O)O)c(O)cc2c1C(=O)c1c(O)c([C@@H]3O[C@H](CO)[C@@H](O)[C@H](O)[C@H]3O)c(O)c(O)c1C2=O` here?
The maximum recommended daily dose (mmol/kg-bw/day) was 0.0169.

With `CC(=O)N(O)CCCCCNC(=O)CCC(=O)N(O)CCCCCNC(=O)CCC(=O)N(O)CCCCCN` as the molecule, how does the maximum recommended daily dose (mmol/kg-bw/day) (TherapeuticCategory: parenteral chelating agent) read?
The maximum recommended daily dose (mmol/kg-bw/day) was 0.178.

`CO[C@@]1(NC(=O)Cc2cccs2)C(=O)N2C(C(=O)O)=C(COC(N)=O)CS[C@@H]21` was tested. Which maximum recommended daily dose (mmol/kg-bw/day) [4] did it give?
The maximum recommended daily dose (mmol/kg-bw/day) was 0.468.

With `CC(=O)O[C@H]1C[C@H](O[C@H]2[C@@H](O)C[C@H](O[C@H]3[C@@H](O)C[C@H](OC4CC[C@@]5(C)C(CC[C@@H]6[C@@H]5C[C@@H](O)[C@]5(C)[C@@H](C7=CC(=O)OC7)[C@@H](O)C[C@]65O)C4)O[C@@H]3C)O[C@@H]2C)O[C@H](C)[C@H]1O[C@@H]1O[C@H](CO)[C@@H](O)[C@H](O)[C@H]1O` (some centres not stated) as the molecule, how does the maximum recommended daily dose (mmol/kg-bw/day) [3] read?
The maximum recommended daily dose (mmol/kg-bw/day) was 3.33e-05.

How did the maximum recommended daily dose (mmol/kg-bw/day) (TherapeuticCategory: abortifacient) turn out when `CC#C[C@]1(O)CC[C@H]2[C@@H]3CCC4=CC(=O)CCC4=C3[C@@H](c3ccc(N(C)C)cc3)C[C@@]21C` was run?
The maximum recommended daily dose (mmol/kg-bw/day) was 0.0233.

Which maximum recommended daily dose (mmol/kg-bw/day) (TherapeuticCategory: skeletal muscle relaxant, neuromuscular blocker) does the source give for `COc1cc(C[C@@H]2c3c(cc(OC)c(OC)c3OC)CC[N@@+]2(C)CCCOC(=O)CCC(=O)OCCC[N@@+]2(C)CCc3cc(OC)c(OC)c(OC)c3[C@@H]2Cc2cc(OC)c(OC)c(OC)c2)cc(OC)c1OC` here?
Its maximum recommended daily dose (mmol/kg-bw/day) is 4.52e-05.

From PubChem BioAssay AID1195 (EPA DSSTox, 2008)
